Data as given in EP1280522B1, “COMBINATION OF CARBOXYALKYLETHERS WITH ANTIHYPERTENSIVES AND PHARMACEUTICAL USE” (WARNER-LAMBERT COMPANY, priority 2000, dated 2001).
Values joined by “and” are separate entries in the source; they are usually repeats but may differ in a detail not shown here. Identical values can stand only once.

Tests used:
[1] = test system: spontaneously hypertensive rats (SHR); experiment: Antihypertensive effect on MABP in SHR by radiotelemetry: CI-1027, quinapril and their combination (Example 1); format: in vivo; details: for MABP: peak MABP 2-4 hours postdose
Protocol: The antihypertensive effects of the carboxyalkylether compound of Formula III (CI-1027), alone and in combination with an antihypertensive agent such as quinapril (CI-906), were evaluated in rats according to the following protocol.
Male spontaneously hypertensive rats (SHR, 15-20 weeks old, Charles River Laboratories, Wilmington, Massachusetts) were prepared with indwelling aortic catheters and radiotransmitters (Data Sciences International, Saint Paul, Minnesota). The radiotransmitters provided continuous measurement of aortic blood pressure waveform. From the aortic blood pressure waveform a Ponemah (Gould Instruments Inc, Valley View, Ohio) computer provided mean arterial blood pressure (MABP) and heart rate values continuously as one-minute averages. One-minute data was then summarized at 15-minute intervals using Excel (Microsoft Corporation, Redmond, Washington) spreadsheets. Animals were allowed food and water ad libitum. To allow for recovery following surgery, rats were not dosed for a minimum of 7 days. Day 0 predose blood pressures were obtained by averaging eight 15-minute MABP measurements made 2 hours before dosing. To obtain the peak response to treatment (Days 0, 12, 16, 19, and 22), the 15-minute MABP measurements in the interval between 2 and 4 hours post-dose were averaged.
Test compounds were given in a vehicle that contained 96% water, 3% carbomethocellulose (Sigma Chemical, Saint Louis, Missouri) and 1% tween 88 (polyoxyethylenesorbitan monooleate, Sigma Chemical). CI-1027 and quinapril monotherapy were administered at 8:30 AM daily by oral gavage in a volume of 2 mL/kg. The combination of CI-1027 and quinapril was given as a single gavage in a volume of 2 mL/kg.
The experiment was carried out over 22 days in 4 groups of animals. Group I served as a control and received 2 mL/kglday of vehicle for 22 consecutive days. Group II, used to determine the antihypertensive response to quinapril monotherapy, was given vehicle for the first 12 to 13 consecutive days. Then on Day 13 to 14 quinapril was added at a dose of 0.3 mg/kg/day for 3 to 4 consecutive days; the dose was then increased to 1 mg/kg/day for the next 3 days, and on the final 3 days, 3 mg/kg/day was administered. To determine the response to CI-1027 monotherapy, Groups III and IV received 12-day treatment with CI-1027 monotherapy at doses of 30 and 100 mg/kg/day, respectively. To determine the antihypertensive response to the combination therapy quinapril, was added to the ongoing CI-1027 treatment (Day 13-14) using the rising dose protocol described for Group II (quinapril monotherapy).

[2] = test system: SHR; experiment: Antihypertensive effect on MABP in SHR by radiotelemetry: CI-1027, amlodipine and their combination (Example 2); format: in vivo, rats; details: for MABP: peak MABP 4-6 hours postdose
Protocol: The general procedure of Example 1 was followed to evaluate the antihypertensive efficacy of the carboxyalkylether CI-1027 alone and in combination with the calcium channel blocker amlodipine.
Male SHR (15-20 weeks old, Charles River Laboratories) were prepared with indwelling aortic catheters and radiotransmitters for continuous measurement of arterial blood pressure and heart rate. Animals were allowed food and water ad libitum. Before dosing all rats were given a minimum of 7 days for recovery from surgery.
The experiment was carried out over 22 days in 3 groups of SHR. Group I served as a control and received 2 mL/kg/day of vehicle (same as in Example 1) for 22 consecutive days. Group II, used to determined the antihypertensive response to amlodipine monotherapy, was given vehicle for the first 13 consecutive days. Then on Day 14, amlodipine was added at a dose of 0.3 mg/kg/day for 3 consecutive days. The dose was then increased to 1 mg/kg/day for the next 3 days, and on the final 3 days, 3 mg/kg/day was given. To determine the response to CI-1027 monotherapy, Group III received a 13-day treatment with CI-1027 monotherapy at a dose of 30 mg/kg/day. The antihypertensive response to the combination therapy was determined by the addition of amlodipine to ongoing CI-1027 treatment on Day 14.
Drugs were suspended or dissolved in vehicle that contains 96% water, 3% carboxymethocellulose, and 1% tween 88. Compounds were given at 9 AM daily by oral gavage in a volume of 2 mL/kg. The combination of CI-1027 and amlodipine was given as a single gavage in a volume of 2 mL/kg.

CCOC(=O)[C@H](CCc1ccccc1)N[C@@H](C)C(=O)N1Cc2ccccc2C[C@H]1C(=O)O [Quinapril, quinapril]
MABP ([1]; Group 2, Day 16, Quinapril 0.3 mg/kg/day oral gavage, mean ± standard error): 122 ± 5 mm Hg | MABP ([1]; Group 2, Day 19, Quinapril 1 mg/kg/day oral gavage, mean ± standard error): 121 ± 4 mm Hg | MABP ([1]; Group 2, Day 22, Quinapril 3 mg/kg/day oral gavage, mean ± standard error): 117 mm Hg and 117 ± 4 mm Hg | antihypertensive response at 3 mg/kg/day greater than noted at 0.3 mg/kg/day ([1]; Quinapril monotherapy, rising dose protocol, difference between 3 and 0.3 mg/kg/day): 5 mm Hg

CC(C)(CCCCOCCCCC(C)(C)C(=O)O)C(=O)O [CI-1027]
antihypertensive activity ([1]; CI-1027 monotherapy, 12 days, 30 and 100 mg/kg/day): modest | MABP ([1]; Group 3, Day 0, CI-1027 30 mg/kg/day oral gavage, predose 149 ± 3): 145 ± 4 mm Hg | MABP ([1]; Group 3, Day 12, CI-1027 30 mg/kg/day oral gavage, 30 mg/kg/day): 131 mm Hg and 131 ± 3 mm Hg | MABP ([1]; Group 4, Day 0, CI-1027 100 mg/kg/day oral gavage, predose 141 ± 4): 141 ± 4 mm Hg | MABP ([2]; Group 3, Day 0, CI-1027 30 mg/kg/day oral gavage, predose 131 ± 3): CI-1027 (30 mg/kg/day) 129 ± 4 mm Hg

CCOC(=O)C1=C(COCCN)NC(C)=C(C(=O)OC)C1c1ccccc1Cl (stereo not drawn) [Amlodipine, amlodipine]
MABP ([2]; Group 2, Day 16, Amlodipine 0.3 mg/kg/day oral gavage, mean ± standard error): Amlodipine (0.3 mg/kg/day) 140 ± 6 mm Hg | MABP ([2]; Group 2, Day 19, Amlodipine 1 mg/kg/day oral gavage): Amlodipine (1 mg/kg/day) 131 ± 5 mm Hg | minimal effective dose ([2]; Rattus norvegicus, po, amlodipine monotherapy (Group II), rising dose protocol, read-out: threshold antihypertensive dose): 1 mg/kg/day
